These results are taken from patent US10500178B2, “LTB4 inhibition to prevent and treat human lymphedema” (The Board of Trustees of the Leland Stanford Junior …, priority 2015, dated 2019).

One assay has as its system p-Sphk1. As to the kind of experiment: Western blot of p-SphK1 in HLECs. Format: cell-based, human. The conditions noted are these: exogenous LTB4 (400 nM). As to the method:
(§1) Western Blot HLECs were lysed with RIPA buffer containing protease and phosphatase inhibitors. Lysates were sonicated briefly and centrifuged. The supernatant was collected and protein concentration was determined by BCA assay. 60 µg of protein were resolved on a 10% SDS-PAGE gel, transferred to a nitrocellulose membrane, blocked with 5% milk and probed with one of the following antibodies: anti-Sphk1 (3297,Cell Signaling); antip-Sphk1(SP1641, ECM Biosciences); anti-NICD (ab8925,Abcam), anti-VEGFR3 (AF743,R&D); anti-DLL4 (ab7280, Abcam). Actin was used to normalize the total protein. Immunofluorescence Immunofluorescence staining was performed using the following primary antibodies: anti-5-LO (3289, Cell Signaling); anti-MPO (ab45977, Abcam); Anti-CD68 (ab22506, Abcam); anti-Prox1(ab101851, Abcam); anti-NICD (ab8925, Abcam), anti-EphrinB2 (AF496,R&D); anti-VEGFR3 (AF743,R&D); anti-Hey1(ab22614, Abcam); Alexa-Fluor-555 Phalloidin (8953,Cell Signaling); anti-DIG(11093274910, Sigma-Aldrich). Negative controls with isotype IgG were run in parallel. Images were acquired by Zeiss 710 confocal microscopy and analyzed using ImageJ software.
(In general: Immunoblotting shows a protein as a band on a membrane.)

Assay [1] relates to HLECs. As to the kind of experiment: LTB4-mediated HLEC apoptosis. The class given is cell-based, human.
The next assay concerns VEGFR3, Vegfc, Vegfd. Description: lymphangiogenic factor levels in HLECs (qRT-PCR, Western blot). Format: cell-based, human. The conditions noted are these: 400 nM LTB4, 100 ng/ml S1P, 25 μM DAPT. As to the method:
as §1
Quantitative RT-PCR. Quantitative PCR (qRT-PCR) was performed using FastStart SYBR Green (Roche) on a Lightcycler 480. mRNA expression relative to GAPDH mRNA levels were calculated using the delta-delta threshold cycle (ΔΔCT) method. PCR microarrays were purchased from Qiagen: RT2 Profiler PCR Array 384-Well Format, Mouse Angiogenesis PAMM-024ZA) and VEGF Signaling (330231 PAMM-091ZA). […]
Background: Real-time PCR tracks product formation cycle by cycle.

Assay [2] concerns HLECs. As to the kind of experiment: tube formation assay on Matrigel. Format: cell-based, human. The conditions noted are these: 400 nM LTB4; 10 μM U75302+LTB4. As to the method:
Tube formation assay. Matrigel (BD Matrigel Basement Membrane Matrix Growth Factor Reduced, Phenol Red Free) was thawed on ice overnight, dispersed into 48-well plates (100 μl per well) and allowed to polymerize for 30 minutes at 37° C. Serum starved HLECs were seeded on the Matrigel at a density of 1×10^4 cells per well. Images of four representative fields were taken 10 hrs later. […]

For assay [3], the system named is lymphatic vessel formation. Description: Matrigel plug assay (LYVE1, VEGFR3 staining). The class given is in vivo, mouse. Particulars: Matrigel plugs in SCID mice. As to the method:
Matrigel plug assay. SCID mice (NOD.Cg-Prkdcscid I/2rgtmlWjl/SzJ, The Jackson Laboratory) of 4-6 weeks of age were used for Matrigel plug injection. Two 250 μl Matrigel plugs were subcutaneously injected into the dorsal surface of the mice. Plugs were recovered with the adjacent subcutaneous tissue 14d later. Tissue was then embedded in paraffin and sectioned for staining.

In the next assay the test system is Notch (NICD, DLL4). As to the kind of experiment: Western blot of NICD and DLL4 in HLECs. The class given is cell-based, human. Here is the method:
as §1

Assay [4] relates to Notch transcriptional activity. As to the kind of experiment: CSL luciferase reporter assay in HLECs. The class given is cell-based, human. Here is the method: pG13-6-CSL luciferase assay. CSL reporter activity was determined as described previously. HLECs (5.0×105) were […] and transfected with both 1 μg CSL luciferase reporter ([…]) and 10 ng Renilla luciferase pRL-SV40 (Promega) using Nucleofactor (Lonza). Luciferase and Renilla activity were then determined with Dual-Luciferase® Reporter Assay System (Promega) and Berthold dual-injection illuminometer.

Assay [5] concerns HLECs. As to the kind of experiment: NICD and filopodia histology of HLECs. The class given is cell-based, human. Here is the method:
as §1

Assay [6] concerns HLECs. Description: trans-well migration assay. The class given is cell-based, human. The conditions noted are these: 400 nM LTB4. Here is the method: Migration assay. Cellular migration was evaluated using a modified Boyden chamber assay. Briefly, 2×10^4 serum-starved HLECs in 250 μl serum free medium were seeded in the upper chamber of the trans-well. 750 μl of serum free ECM containing various drugs was placed in the lower chamber. Ten hours later, migrated cells were stained with a modified Giemsa solution (Sigma-Aldrich) for quantification.

The subject of assay [7] is HLECs. Description: HLEC lymphangiogenesis (tube formation, migration, wound healing, sprouting). Format: cell-based, human. The conditions noted are these: 100 nm, 200 nm, 400 nm or 800 nm LTB4. As to the method:
Tube formation assay. Matrigel (BD Matrigel Basement Membrane Matrix Growth Factor Reduced, Phenol Red Free) was thawed on ice overnight, dispersed into 48-well plates (100 μl per well) and allowed to polymerize for 30 minutes at 37° C. Serum starved HLECs were seeded on the Matrigel at a density of 1×10^4 cells per well. Images of four representative fields were taken 10 hrs later. ImageJ software was used to determine total cellular cord length. Migration assay. Cellular migration was evaluated using a modified Boyden chamber assay. Briefly, 2×10^4 serum-starved HLECs in 250 μl serum free medium were seeded in the upper chamber of the trans-well. 750 μl of serum free ECM containing various drugs was placed in the lower chamber. Ten hours later, migrated cells were stained with a modified Giemsa solution (Sigma-Aldrich) for quantification. Wound healing assay. 6×10^5 HLECs were seeded on an Easy Slide (Millipore) the day before the experiment and allowed to form a fully confluent monolayer, and then cells were serum starved for 12 hrs. A 200 μl pipet tip was used to scratch a straight line across the middle of the cell monolayer. Cell debris was removed through PBS washing. Images were taken immediately after the scratch and the same windows were imaged again 12 hrs later. The rate of cell migration was calculated as the average percent wound closure from at least 5 independent experiments using ImageJ software. Fibrin gel sprouting assay. HLECs were first coated overnight onto the Cytodex-3 beads with an approximate concentration of 400 cells per bead. On the following day, the microbeads were transferred to 2.0 mg/ml fibrinogen solution containing 0.15 units/ml of aprotinin. Later, 0.625 units/ml thrombin was added to the mixture to gelatinize the fibrin gel. Endothelial sprouts (vessel outgrowth) were observed within 3 days of culture using phase micrographic images and quantified as number of vessels per bead.

For assay [8], the system named is HLECs. As to the kind of experiment: fibrin gel sprouting assay. The class given is cell-based, human. Particulars: 400 nM LTB4. Here is the method:
Fibrin gel sprouting assay. HLECs were first coated overnight onto the Cytodex-3 beads with an approximate concentration of 400 cells per bead. On the following day, the microbeads were transferred to 2.0 mg/ml fibrinogen solution containing 0.15 units/ml of aprotinin. Later, 0.625 units/ml thrombin was added to the mixture to gelatinize the fibrin gel. Endothelial sprouts (vessel outgrowth) were observed within 3 days of culture using phase micrographic images and quantified as number of vessels per bead.

With `CCCCC/C=C\C[C@@H](O)/C=C/C=C/C=C\[C@@H](O)CCCC(=O)O` [LTB4, leukotriene B4], the “p-Sphk1 in HLECs” value in the assay with p-Sphk1 was “diminished p-Sphk1”. In addition, in the assay with HLECs [1], the LEC apoptosis entry is listed as “induced LEC apoptosis in a concentration-dependent manner”. The “VEGFR3 expression and Vegfc, Vegfd transcription” value in the assay with VEGFR3, Vegfc, Vegfd is on record as “reduced”. Besides, the “tube formation (tube area)” value in the assay with HLECs [2] is “decreased tube area”. In addition, in assay [3], the “VEGFR3 expression of HLECs in vivo” value was “inhibited the VEGFR3 expression”. For the same compound, the “lymphatic vessel formation in vivo” value in assay [3] (recovered 14d later) is listed as “attenuated lymphatic vessel formation”. Further, the “cleaved Notch (NICD) and DLL4 levels” value in the assay on Notch (NICD, DLL4) is reported as “decreased”. The “Notch transcriptional activity (CSL reporter), in words” value in assay [4] (LTB4 100-800 nm for 24 h) is recorded as “inhibited Notch transcriptional activity in a dose dependent fashion”. Also, the “reduction of reporter activity” value in assay [4] (physiologic (400 nM) levels of LTB4) is given as over 50%. Besides, the “filopodia, nuclear-localized NICD and EphrinB2, cell shape” value in the assay on HLECs [5] is “increased filopodia and less nuclear-localized NICD and EphrinB2”. In addition, the HLEC migration result with HLECs [6] was “inhibited HLEC migration”. In the assay with HLECs [7], the “concentration dependence of lymphangiogenesis block” value is listed as “blocked lymphangiogenesis in a concentration-dependent manner”. In addition, the “sprout formation in 3D-fibrin-gel assay” value with HLECs [8] is “preventing them from forming sprouts”.
